According to patent US10357481B2 (MERCK SHARP & DOHME CORP., priority 2015, dated 2019):

Target: T1, human PDE2A1 (Homo sapiens, UniProt O00408)
T1 construct: GST; purchased BPS Bioscience (San Diego, Calif.) 60020; host or cells: insect cells
Assay: IMAP FP PDE selectivity panel, human PDE2A1
Type: biochemical
Conditions: Lab B; read-out: Human PDE2 Ki (nM) Lab B
Procedure, shortened: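 Human PDE2A1 tested alongside PDE1–11 by IMAP fluorescence polarization at room temperature. Substrate was 50 nM FAM-cAMP plus 1000 nM cGMP, buffer pH 7.2 with MgCl2 and DTT, enzyme set for 20% conversion. Ten 3-fold compound dilutions; 60 min reaction, then IMAP binding solution, 1 h, parallel/perpendicular fluorescence read.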

T1 sequence (O00408 1-920 isoform O00408-2): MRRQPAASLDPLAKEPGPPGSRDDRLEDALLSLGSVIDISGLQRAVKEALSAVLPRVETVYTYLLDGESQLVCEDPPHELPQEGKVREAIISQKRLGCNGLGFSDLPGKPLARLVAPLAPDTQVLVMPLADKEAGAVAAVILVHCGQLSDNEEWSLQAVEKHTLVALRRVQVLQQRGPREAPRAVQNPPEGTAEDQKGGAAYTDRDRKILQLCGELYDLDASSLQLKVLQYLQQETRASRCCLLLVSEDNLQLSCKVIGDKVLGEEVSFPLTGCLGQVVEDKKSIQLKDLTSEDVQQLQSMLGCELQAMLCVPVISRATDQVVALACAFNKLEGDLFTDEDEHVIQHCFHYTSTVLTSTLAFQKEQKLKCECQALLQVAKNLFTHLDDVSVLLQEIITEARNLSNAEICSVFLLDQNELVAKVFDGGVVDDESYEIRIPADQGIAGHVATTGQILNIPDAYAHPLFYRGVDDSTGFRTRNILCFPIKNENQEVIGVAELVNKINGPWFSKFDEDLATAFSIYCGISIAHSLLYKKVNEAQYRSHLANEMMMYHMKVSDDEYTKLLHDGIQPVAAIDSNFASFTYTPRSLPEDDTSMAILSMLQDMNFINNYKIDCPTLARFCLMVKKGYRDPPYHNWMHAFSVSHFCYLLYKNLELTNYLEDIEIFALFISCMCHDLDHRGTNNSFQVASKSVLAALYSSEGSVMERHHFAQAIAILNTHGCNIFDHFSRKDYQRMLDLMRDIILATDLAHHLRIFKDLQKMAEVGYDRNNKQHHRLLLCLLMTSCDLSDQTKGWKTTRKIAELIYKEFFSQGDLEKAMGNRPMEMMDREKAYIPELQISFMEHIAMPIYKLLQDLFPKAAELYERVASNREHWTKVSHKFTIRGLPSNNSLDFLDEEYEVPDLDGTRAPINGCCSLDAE

With `Cc1cc(N[C@H](C)c2ccc(CC(F)(F)F)cc2)n2ncnc2n1` [Example 4, 5-Methyl-N-{(1R)-1-[4-(2,2,2-trifluoroethyl)phenyl]ethyl}[1,2,4] triazolo[1,5-a]pyrimidin-7-amine] the Ki was 108 nM.
With `Cc1nc2ncnn2c(NC2(c3ccc(C(F)(F)F)c(F)c3)CC2)c1C` [Example 87, N-{1-[3-Fluoro-4-(trifluoromethyl)phenyl]cyclopropyl}-5,6-dimethyl[1,2,4]triazolo[1,5-a]pyrimidin-7-amine] the Ki was 132 nM.
`CC(C)(O)C(Nc1cc(C2CC2)nc2ncnn12)c1ccc(OC(F)(F)F)c(F)c1` (single isomer, unassigned) [Example 141, (1R or S)-1-[(5- Cyclopropyl [1,2,4]triazolo [1,5-a]pyrimidin-7-yl)amino]-1-[3-fluoro-4-(trifluoro-methoxy)phenyl]-2-methylpropan-2-ol] was tested, and the Ki was 877 nM.
With `Cc1cc(NC2(c3ccc(C(F)(F)F)c(F)c3)CC2)n2nc(CO)nc2n1` [Example 196, (7-(1-(3-Fluoro-4-(trifluoromethyl)phenyl)cyclopropylamino)-5-methyl-[1,2,4]triazolo [1,5-a]pyrimidin-2-yl)methanol] the Ki was 321 nM.
With `CC(C)(O)C(Nc1cc(C(F)(F)F)nc2ncnn12)c1ccc(OC(F)F)cc1` (single isomer, unassigned) [Example 166, (1R or S)-1-[4-(Difluoromethoxy)phenyl]-2-methyl-1-{[5-(trifluoromethyl) [1,2,4]triazolo [1,5-a]pyrimidin-7-yl]amino} propan-2-ol] the Ki was about 2190 nM.
`Cc1cc(NC(c2cc3ccccc3n2C)C(C)(C)O)n2ncnc2n1` (single isomer, unassigned) [Example 125, (1R or S)-2-Methyl-1-(1-methyl-1H-indol-2-yl)-1-[(5-methyl [1,2,4]triazolo [1,5-a]pyrimidin-7-yl)amino] propan-2-ol] was tested, and the Ki was over 2960 nM.
`Cc1cc(NC(c2ccc(C(F)(F)F)cc2F)C(C)(C)O)n2ncnc2n1` (single isomer, unassigned) [Example 115, (1R or S)-1-[2-Fluoro-4-(trifluoromethyl)phenyl]-2-methyl-1-[(5-methyl [1,2,4]triazolo [1,5-a]pyrimidin-7-yl)amino] propan-2-ol] was tested, and the Ki was 23 nM.
`CC(C)c1cc(NC(c2ccc(C(F)(F)F)cc2)C(C)(C)O)n2ncnc2n1` (stereo in doubt) [Example 156, (1S)-2-Methyl-1-{[5-(1-methylethyl)[1,2,4]triazolo[1,5-a]pyrimidin-7-yl]amino}-1-[4-(trifluoromethyl)phenyl]propan-2-ol] was tested, and the Ki was 636 nM.
In the case of `CC(C)(O)C(Nc1cc(C(F)(F)F)nc2ncnn12)c1ccc2c(c1)OC(F)(F)O2` (single isomer, unassigned) [Example 167, (1S or R)-1-(2,2-Difluoro-1,3-benzodioxol-5-yl)-2-methyl-1-{[5-(trifluoromethyl) [1,2,4]triazolo [1,5-a]pyrimidin-7-yl]amino} propan-2-ol], the Ki is reported as 184 nM.
Molecule `CC(C)(O)C(Nc1cc(C(F)(F)F)nc2ncnn12)c1ccc(C(F)(F)F)cc1F` (single isomer, unassigned) [Example 174, (1R or S)-1-[2-Fluoro-4-(trifluoromethyl)phenyl]-2-methyl-1-{[5-(trifluoromethyl) [1,2,4]triazolo [1,5-a]pyrimidin-7-yl]amino} propan-2-ol] has a Ki of 29 nM.
In the case of `CC(C)(C)c1ccc(C(Nc2cc(C(F)(F)F)nc3ncnn23)C(C)(C)O)cc1` (single isomer, unassigned) [Example 161, (1S or S)-1-(4-tert-Butylphenyl)-2-methyl-1-{[5-(trifluoromethyl) [1,2,4]triazolo [1,5-a]pyrimidin-7-yl]amino} propan-2-ol], the Ki is reported as 19 nM.
Molecule `Cc1cc(N[C@H](c2ccc(OC(F)(F)F)cc2Cl)C(C)(C)O)n2ncnc2n1` [Example 101, (1R)-1-[2-Chloro-4-(trifluoromethoxy)phenyl]-2-methyl-1-[(5-methyl[1,2,4]triazolo[1,5-a]pyrimidin-7-yl)amino]propan-2-ol] has a Ki of 27 nM.
